Test results published in paper PMC8657855 (International Journal of Molecular Sciences, 2021).
Converted amounts (≈) assume the structure as drawn.

Experiments:
Test in all cases: microbe, parasite or virus in culture
[1] = test system: Xanthomonas oryzae pv. oryzae Xoo; settings: read-out: EC50 (mg/L) Xoo
[2] = test system: Xanthomonas oryzae pv. oryzicola Xoc; settings: read-out: EC50 (mg/L) Xoc
[3] = test system: Xanthomonas oryzae pv. oryzae Xoo
[4] = test system: Xanthomonas oryzae pv. oryzicola Xoc
[5] = read-out: Inhibition (%) 10 (mg/L)
[6] = read-out: Inhibition (%) 50 (mg/L)

CS(=O)(=O)c1nnc(CNC(=O)c2ccc(F)cc2)o1 [compound 26, 4-fluoro-N-((5-(methylsulfonyl)-1,3,4-oxadiazol-2-yl)methyl)benzamide]
EC50 [1]: 0.61 ± 0.03 mg/L (≈ 2.04 µM)
EC50 [2]: 2.3 ± 0.06 mg/L (≈ 7.69 µM)
inhibition at 10 µg/mL [3, 5]: 99.4 ± 0.2%
inhibition at 50 µg/mL [3, 6]: 99.1 ± 0.1%
inhibition at 10 µg/mL [4, 5]: 98.3 ± 1.6%
inhibition at 50 µg/mL [4, 6]: 99 ± 1%
